Test system: 945468-187-T-J3-PDC spheroids with HUVEC/MSC, viability
Test: Anticancer human tumor 945468-187-T-J3-PDC patient-derived rectal carcinoma cell line growth inhibition [PI3K]
Conditions: for IC50: curve of first compound; for viability, T/C: stronger effect = lower value; active = viability on the fitted dose curve at most 10% of control; inactive = the rest
Summary of the method: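 Multi-cell spheroids combine tumor cells with HUVEC and human MSCs, treated with targeted agents alone or with inavolisib, alpelisib, duvelisib or copanlisib. Concentrations fall in half-log steps from at or near clinical Cmax, or from 10 microM where Cmax is unknown; viability read-out.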

[1] = second compound 0.00316 µM, first compound 0.0316 µM
[2] = second compound 0.00316 µM, first compound 0.1 µM
[3] = second compound 0.00316 µM, first compound 0.316 µM
[4] = second compound 0.00316 µM, first compound 1 µM
[5] = second compound 0.00316 µM, first compound 3.16 µM
[6] = second compound 0.00316 µM, first compound 10 µM
[7] = second compound 0.01 µM, first compound 0.0316 µM
[8] = second compound 0.01 µM, first compound 0.1 µM
[9] = second compound 0.01 µM, first compound 0.316 µM
[10] = second compound 0.01 µM, first compound 1 µM
[11] = second compound 0.01 µM, first compound 3.16 µM
[12] = second compound 0.01 µM, first compound 10 µM
[13] = second compound 0.0316 µM, first compound 0.0316 µM
[14] = second compound 0.0316 µM, first compound 0.1 µM
[15] = second compound 0.0316 µM, first compound 0.316 µM
[16] = second compound 0.0316 µM, first compound 1 µM
[17] = second compound 0.0316 µM, first compound 3.16 µM
[18] = second compound 0.0316 µM, first compound 10 µM
[19] = second compound 0.1 µM, first compound 0.0316 µM
[20] = second compound 0.1 µM, first compound 0.1 µM
[21] = second compound 0.1 µM, first compound 0.316 µM
[22] = second compound 0.1 µM, first compound 1 µM
[23] = second compound 0.1 µM, first compound 3.16 µM
[24] = second compound 0.1 µM, first compound 10 µM
[25] = second compound 0.316 µM, first compound 0.0316 µM
[26] = second compound 0.316 µM, first compound 0.1 µM
[27] = second compound 0.316 µM, first compound 0.316 µM
[28] = second compound 0.316 µM, first compound 1 µM
[29] = second compound 0.316 µM, first compound 3.16 µM
[30] = second compound 0.316 µM, first compound 10 µM
[31] = second compound 1 µM, first compound 0.0316 µM
[32] = second compound 1 µM, first compound 0.1 µM
[33] = second compound 1 µM, first compound 0.316 µM
[34] = second compound 1 µM, first compound 1 µM
[35] = second compound 1 µM, first compound 3.16 µM
[36] = second compound 1 µM, first compound 10 µM
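Note: spheroids exposed to agents for 7 days before viability read.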
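Throughout, for viability, T/C: 100% = DMSO vehicle control viability.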

C[C@@H](NC(=O)c1ncnc(N)c1Cl)c1ncc(C(=O)Nc2cc(C(F)(F)F)c(Cl)cn2)s1 + COc1c(OCCCN2CCOCC2)ccc2c3n(c(=NC(=O)c4cnc(N)nc4)nc12)CCN3
< 0.0316 µM: IC50 (second compound 0.1 µM) | IC50 (second compound 0.316 µM) | IC50 (second compound 1 µM)
> 10 µM: IC50 (second compound 0.00316 µM) | IC50 (second compound 0.01 µM) | IC50 (second compound 0.0316 µM)
inactive: viability, T/C [1] 89.2% | viability, T/C [2] 101% | viability, T/C [3] 97.1% | viability, T/C [4] 104% | viability, T/C [5] 98.4% | viability, T/C [6] 95.9% | viability, T/C [7] 118% | viability, T/C [8] 91.7% | viability, T/C [9] 101% | viability, T/C [10] 99.3% | viability, T/C [11] 94.6% | viability, T/C [12] 90.3% | viability, T/C [13] 94.5% | viability, T/C [14] 101% | viability, T/C [15] 83.8% | viability, T/C [16] 95% | viability, T/C [17] 92% | viability, T/C [18] 102% | viability, T/C [19] 34.8% | viability, T/C [20] 42.1% | viability, T/C [21] 39% | viability, T/C [22] 45.5% | viability, T/C [23] 45.6% | viability, T/C [24] 51.8% | viability, T/C [25] 19.7% | viability, T/C [26] 22.8% | viability, T/C [27] 19.8% | viability, T/C [28] 18.2% | viability, T/C [29] 20.8% | viability, T/C [30] 21.4% | viability, T/C [31] 17.3% | viability, T/C [32] 17.7% | viability, T/C [33] 17.4% | viability, T/C [34] 16.1% | viability, T/C [35] 19% | viability, T/C [36] 19.9%

Cn1ncc(Cl)c1-c1cc(C(=O)NC(CN)Cc2cccc(F)c2)sc1Cl (stereo unspecified) + COc1c(OCCCN2CCOCC2)ccc2c3n(c(=NC(=O)c4cnc(N)nc4)nc12)CCN3
0.653 µM: IC50 (second compound 0.01 µM)
inactive: viability, T/C [1] 88.3% | viability, T/C [2] 82.3% | viability, T/C [3] 77.4% | viability, T/C [4] 48.8% | viability, T/C [5] 32.7% | viability, T/C [6] 25.2% | viability, T/C [7] 83.4% | viability, T/C [8] 83.7% | viability, T/C [9] 67% | viability, T/C [10] 36.9% | viability, T/C [11] 30.9% | viability, T/C [12] 14.7% | viability, T/C [13] 83% | viability, T/C [14] 80.3% | viability, T/C [15] 51.1% | viability, T/C [16] 29.1% | viability, T/C [17] 29% | viability, T/C [18] 12.9% | viability, T/C [19] 39.4% | viability, T/C [20] 34.8% | viability, T/C [21] 28.4% | viability, T/C [22] 24.3% | viability, T/C [23] 20.5% | viability, T/C [25] 20.5% | viability, T/C [26] 19.1% | viability, T/C [27] 17.4% | viability, T/C [28] 19.6% | viability, T/C [29] 23.4% | viability, T/C [30] 3.82% | viability, T/C [31] 18% | viability, T/C [32] 16.8% | viability, T/C [33] 16.9% | viability, T/C [34] 16.1% | viability, T/C [35] 16%
< 0.0316 µM: IC50 (second compound 0.1 µM) | IC50 (second compound 0.316 µM) | IC50 (second compound 1 µM)
active: viability, T/C [24] 7.64% | viability, T/C [36] 1.05%
1.01 µM: IC50 (second compound 0.00316 µM)
0.368 µM: IC50 (second compound 0.0316 µM)

Cn1ncnc1[C@H]1c2n[nH]c(=O)c3cc(F)cc(c23)N[C@@H]1c1ccc(F)cc1 + COc1c(OCCCN2CCOCC2)ccc2c3n(c(=NC(=O)c4cnc(N)nc4)nc12)CCN3
> 0.1 µM: IC50 (second compound 0.00316 µM) | IC50 (second compound 0.01 µM) | IC50 (second compound 0.0316 µM)
inactive: viability, T/C (second compound 0.00316 µM, first compound 0.000316 µM) 101% | viability, T/C (second compound 0.00316 µM, first compound 0.001 µM) 90.1% | viability, T/C (second compound 0.00316 µM, first compound 0.00316 µM) 88.8% | viability, T/C (second compound 0.00316 µM, first compound 0.01 µM) 92.6% | viability, T/C [1] 117% | viability, T/C [2] 92.8% | viability, T/C (second compound 0.01 µM, first compound 0.000316 µM) 99.3% | viability, T/C (second compound 0.01 µM, first compound 0.001 µM) 91.4% | viability, T/C (second compound 0.01 µM, first compound 0.00316 µM) 97.7% | viability, T/C (second compound 0.01 µM, first compound 0.01 µM) 92.5% | viability, T/C [7] 101% | viability, T/C [8] 95.4% | viability, T/C (second compound 0.0316 µM, first compound 0.000316 µM) 98.8% | viability, T/C (second compound 0.0316 µM, first compound 0.001 µM) 93.9% | viability, T/C (second compound 0.0316 µM, first compound 0.00316 µM) 84.2% | viability, T/C (second compound 0.0316 µM, first compound 0.01 µM) 86% | viability, T/C [13] 89.2% | viability, T/C [14] 97.6% | viability, T/C (second compound 0.1 µM, first compound 0.000316 µM) 46.5% | viability, T/C (second compound 0.1 µM, first compound 0.001 µM) 55.3% | viability, T/C (second compound 0.1 µM, first compound 0.00316 µM) 40.8% | viability, T/C (second compound 0.1 µM, first compound 0.01 µM) 49.5% | viability, T/C [19] 42% | viability, T/C [20] 38.8% | viability, T/C (second compound 0.316 µM, first compound 0.000316 µM) 20.3% | viability, T/C (second compound 0.316 µM, first compound 0.001 µM) 21.3% | viability, T/C (second compound 0.316 µM, first compound 0.00316 µM) 19.4% | viability, T/C (second compound 0.316 µM, first compound 0.01 µM) 22.2% | viability, T/C [25] 21.2% | viability, T/C [26] 18.5% | viability, T/C (second compound 1 µM, first compound 0.000316 µM) 14.1% | viability, T/C (second compound 1 µM, first compound 0.001 µM) 15.5% | viability, T/C (second compound 1 µM, first compound 0.00316 µM) 15.3% | viability, T/C (second compound 1 µM, first compound 0.01 µM) 15.7% | viability, T/C [31] 14.8% | viability, T/C [32] 12.6%
< 0.000316 µM: IC50 (second compound 0.1 µM) | IC50 (second compound 0.316 µM) | IC50 (second compound 1 µM)
